Active and inactive are the calls of the source.
Assays:
[1] = HIV-1 Vif–A3G interaction blockers – biochemical, TR-FRET, GST-Vif 1-94, biotin-A3G peptide, dose response retest, primary screen (AID 1117319); assay type: functional;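 note: TR-FRET signal of purified GST-Vif binding a biotinylated A3G peptide; inhibitors lower the FRET signal by blocking Vif and A3G binding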
[2] = biological target: Neurotensin receptor type 1 (Homo sapiens, UniProt P30989); assay type: functional;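 note: Image-based confirmatory dose-response assay measuring agonist activity at NTR1; NTR1-expressing U2OS osteosarcoma cells imaged for beta-arrestin GFP spot formation; agonist potency where compounds increase beta-arrestin recruitment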
[3] = biological target: Cytochrome P450 3A4 (Homo sapiens, UniProt P08684); details: Potency;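 note: confirmatory qHTS run detecting inhibitors and substrates of CYP3A4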
[4] = biological target: T1, Neuropeptide Y receptor type 1 (Homo sapiens, UniProt P25929); assay type: functional;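 note: HEK293 cells with a CNG channel challenged with NPY then isoproterenol; potency as antagonist that reverses NPY suppression of cAMP signal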
T1 sequence (P25929 whole entry): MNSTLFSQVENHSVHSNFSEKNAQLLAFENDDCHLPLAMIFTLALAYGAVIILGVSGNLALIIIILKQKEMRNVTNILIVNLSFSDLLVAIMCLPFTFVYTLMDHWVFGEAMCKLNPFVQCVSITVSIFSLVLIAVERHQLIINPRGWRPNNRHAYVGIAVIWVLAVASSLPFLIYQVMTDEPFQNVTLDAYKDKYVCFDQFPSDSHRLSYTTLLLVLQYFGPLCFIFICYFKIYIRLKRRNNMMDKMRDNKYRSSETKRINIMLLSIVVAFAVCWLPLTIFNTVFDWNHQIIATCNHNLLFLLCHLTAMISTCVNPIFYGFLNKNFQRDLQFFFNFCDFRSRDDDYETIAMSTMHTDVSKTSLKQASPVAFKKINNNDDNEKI

[5] = biological target: T2, Neuropeptide Y receptor type 2 (Homo sapiens, UniProt P49146); assay type: functional, cell-based;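 note: HEK293 cells expressing the receptor and a CNG channel; stimulus was NPY near EC95 followed by isoproterenol to raise cAMP; antagonist potency measured as restoring cAMP signal that NPY suppresses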
T2 sequence (P49146 whole entry): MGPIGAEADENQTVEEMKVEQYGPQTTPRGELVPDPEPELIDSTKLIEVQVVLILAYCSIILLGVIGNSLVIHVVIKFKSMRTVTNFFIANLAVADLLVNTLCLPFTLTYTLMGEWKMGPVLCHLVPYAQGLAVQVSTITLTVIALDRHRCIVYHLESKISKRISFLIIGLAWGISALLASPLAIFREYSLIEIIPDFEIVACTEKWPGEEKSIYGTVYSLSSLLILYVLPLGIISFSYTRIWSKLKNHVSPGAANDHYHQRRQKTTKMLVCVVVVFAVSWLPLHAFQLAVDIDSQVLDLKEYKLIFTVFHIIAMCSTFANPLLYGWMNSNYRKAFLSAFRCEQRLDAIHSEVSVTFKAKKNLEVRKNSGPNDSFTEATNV

[6] = P. falciparum Dd2 growth inhibitors, dose response, SYBR Green, cherry-picked samples (AID 1159567); assay type: functional, cell-based
[7] = Dd2 malaria parasite growth inhibition potency – SYBR Green, dry powder samples, dose response (AID 1159566); assay type: functional, cell-based;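 note: potency for growth inhibition with lower SYBR green DNA signal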
[8] = growth inhibition of yeast DHODH-expressing 3D7 parasites – SYBR Green, dry powder samples, dose response (AID 1159570); assay type: functional, cell-based;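 note: parasite growth measured after 72 hours of compound exposure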
[9] = blockers of HIV-1 envelope-mediated cell-cell fusion – cherry-pick, dose response (AID 652057); assay type: functional, cell-based
[10] = growth inhibition of PfATP4-mutant resistant parasites – NITD609-resistant line, SYBR Green, dry powder, dose response (AID 1159571); assay type: functional, cell-based;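 note: parasites synchronized at ring stage by sorbitol before testing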
[11] = toxicity to human HepG2 hepatoma cells – cell-based, plate reader, dry powder samples, cytotoxicity control, dose response (AID 1159569); assay type: functional;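 note: inhibitor potency with signal falling toward the positive control level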
[12] = A Cell Based Secondary Assay To Explore Cytotoxicity of Compounds that Sensitize Mycobacterium Tuberculosis to Beta-Lactam Antibiotics.; assay type: functional
[13] = biological target: T3, Heat shock factor protein 1 (Mus musculus, UniProt P38532); experiment: decrease of HSF1-responsive luciferase luminescence – cell-based, NIH3T3, dose retest, confirmation (AID 2382); assay type: functional;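 note: NIH3T3 fibroblasts with HSF1-driven luciferase reporter stressed by proteasome inhibitor MG132; luminescence from HSF1-driven luciferase expression after 8 hours of MG132 stress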
T3 sequence (P38532 whole entry): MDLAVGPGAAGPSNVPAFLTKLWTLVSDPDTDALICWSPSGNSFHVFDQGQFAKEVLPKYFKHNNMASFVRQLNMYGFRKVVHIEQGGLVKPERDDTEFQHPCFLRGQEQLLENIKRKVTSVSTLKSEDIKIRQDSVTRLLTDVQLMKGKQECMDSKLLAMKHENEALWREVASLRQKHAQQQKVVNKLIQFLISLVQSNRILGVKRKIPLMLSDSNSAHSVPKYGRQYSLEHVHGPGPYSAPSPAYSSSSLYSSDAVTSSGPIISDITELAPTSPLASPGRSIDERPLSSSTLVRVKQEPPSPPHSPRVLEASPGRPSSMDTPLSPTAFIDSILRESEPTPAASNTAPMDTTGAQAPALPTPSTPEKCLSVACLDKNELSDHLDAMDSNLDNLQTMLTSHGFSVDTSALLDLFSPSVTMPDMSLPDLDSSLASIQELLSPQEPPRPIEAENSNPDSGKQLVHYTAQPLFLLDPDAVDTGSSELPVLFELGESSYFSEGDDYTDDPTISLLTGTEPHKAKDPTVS

[14] = biological target: Estrogen receptor beta (Homo sapiens, UniProt Q92731);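 note: recombinant ER-beta bound to coactivator SRC1 peptide in presence of estradiol agonist; inhibitors block coactivator peptide binding and lower the FRET signal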
[15] = biological target: T4, Estrogen receptor (Homo sapiens, UniProt P03372);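 note: potency for inhibiting coactivator peptide recruitment to the receptor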
T4 sequence (P03372 whole entry): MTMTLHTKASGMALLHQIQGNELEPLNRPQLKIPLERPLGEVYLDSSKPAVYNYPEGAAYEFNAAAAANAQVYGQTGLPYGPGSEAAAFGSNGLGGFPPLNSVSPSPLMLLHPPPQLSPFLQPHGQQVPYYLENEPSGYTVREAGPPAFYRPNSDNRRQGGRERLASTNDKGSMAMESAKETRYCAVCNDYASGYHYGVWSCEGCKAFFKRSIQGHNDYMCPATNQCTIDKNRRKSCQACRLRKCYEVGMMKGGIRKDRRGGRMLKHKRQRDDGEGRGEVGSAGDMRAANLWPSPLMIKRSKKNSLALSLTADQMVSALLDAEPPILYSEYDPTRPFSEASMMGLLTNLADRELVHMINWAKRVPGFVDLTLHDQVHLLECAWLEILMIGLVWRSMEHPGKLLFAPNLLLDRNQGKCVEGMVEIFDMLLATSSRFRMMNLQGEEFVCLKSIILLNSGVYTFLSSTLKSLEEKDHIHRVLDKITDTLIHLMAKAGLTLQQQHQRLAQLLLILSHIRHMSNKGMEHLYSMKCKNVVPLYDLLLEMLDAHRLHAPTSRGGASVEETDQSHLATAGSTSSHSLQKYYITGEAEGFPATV

[16] = biological target: Cytochrome P450 2C19 (Homo sapiens, UniProt P33261); experiment: Cytochrome panel assay with activity outcomes. Panel member name: p450-cyp2c19 Compounds with AC50 equal or less than 10 uM are considered active; assay type: functional
[17] = biological target: Cytochrome P450 2C9 (Homo sapiens, UniProt P11712)
[18] = biological target: Bcl-2-like protein 1 (Homo sapiens, UniProt Q07817); experiment: blockers of BCLXL peptide binding – biochemical, fluorescence polarization, 1536-well, selectivity assay for MCL1 inhibitor project, dose response (AID 2218)
[19] = biological target: Induced myeloid leukemia cell differentiation protein Mcl-1 (Homo sapiens, UniProt Q07820); experiment: blockers of MCL1 binding to BIM peptide – biochemical, fluorescence polarization, BIM-BH3 peptide, 1536-well, dose response (AID 2217)
Chain of Induced myeloid leukemia cell differentiation protein Mcl-1 (Q07820 whole entry): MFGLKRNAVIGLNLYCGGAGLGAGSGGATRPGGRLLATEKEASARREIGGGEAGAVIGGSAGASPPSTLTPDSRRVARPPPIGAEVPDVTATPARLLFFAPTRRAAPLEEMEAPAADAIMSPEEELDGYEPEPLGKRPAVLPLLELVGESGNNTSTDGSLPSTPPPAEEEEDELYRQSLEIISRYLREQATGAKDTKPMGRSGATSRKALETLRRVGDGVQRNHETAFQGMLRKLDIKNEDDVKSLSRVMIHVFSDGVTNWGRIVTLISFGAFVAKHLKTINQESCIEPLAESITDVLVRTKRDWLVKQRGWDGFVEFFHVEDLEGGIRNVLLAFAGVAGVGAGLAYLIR

Chain of Cytochrome P450 3A4 (P08684 whole entry): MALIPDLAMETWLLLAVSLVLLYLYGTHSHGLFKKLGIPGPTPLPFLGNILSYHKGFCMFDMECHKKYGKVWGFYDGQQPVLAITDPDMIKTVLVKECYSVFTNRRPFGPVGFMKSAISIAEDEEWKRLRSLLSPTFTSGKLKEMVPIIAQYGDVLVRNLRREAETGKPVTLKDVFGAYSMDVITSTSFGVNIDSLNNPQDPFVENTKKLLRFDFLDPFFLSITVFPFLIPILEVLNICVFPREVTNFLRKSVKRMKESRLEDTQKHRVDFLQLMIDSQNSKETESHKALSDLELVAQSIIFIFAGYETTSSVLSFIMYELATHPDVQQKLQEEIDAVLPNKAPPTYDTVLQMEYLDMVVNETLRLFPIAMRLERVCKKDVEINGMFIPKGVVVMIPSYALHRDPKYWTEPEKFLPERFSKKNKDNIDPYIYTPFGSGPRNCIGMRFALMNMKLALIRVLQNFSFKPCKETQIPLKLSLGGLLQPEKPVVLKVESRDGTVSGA
Chain of Neurotensin receptor type 1 (P30989 whole entry): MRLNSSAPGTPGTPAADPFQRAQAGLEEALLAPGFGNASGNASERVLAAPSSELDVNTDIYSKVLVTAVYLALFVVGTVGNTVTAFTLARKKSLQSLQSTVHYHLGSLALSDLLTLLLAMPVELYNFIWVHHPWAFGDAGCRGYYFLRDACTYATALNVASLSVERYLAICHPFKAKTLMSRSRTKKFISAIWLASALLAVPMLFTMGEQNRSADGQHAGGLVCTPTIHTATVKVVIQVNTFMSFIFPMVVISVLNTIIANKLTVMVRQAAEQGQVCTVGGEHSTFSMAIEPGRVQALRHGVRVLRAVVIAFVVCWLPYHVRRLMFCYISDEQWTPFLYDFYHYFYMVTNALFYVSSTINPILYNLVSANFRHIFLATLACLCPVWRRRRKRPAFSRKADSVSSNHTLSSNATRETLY
Chain of Estrogen receptor beta (Q92731 whole entry): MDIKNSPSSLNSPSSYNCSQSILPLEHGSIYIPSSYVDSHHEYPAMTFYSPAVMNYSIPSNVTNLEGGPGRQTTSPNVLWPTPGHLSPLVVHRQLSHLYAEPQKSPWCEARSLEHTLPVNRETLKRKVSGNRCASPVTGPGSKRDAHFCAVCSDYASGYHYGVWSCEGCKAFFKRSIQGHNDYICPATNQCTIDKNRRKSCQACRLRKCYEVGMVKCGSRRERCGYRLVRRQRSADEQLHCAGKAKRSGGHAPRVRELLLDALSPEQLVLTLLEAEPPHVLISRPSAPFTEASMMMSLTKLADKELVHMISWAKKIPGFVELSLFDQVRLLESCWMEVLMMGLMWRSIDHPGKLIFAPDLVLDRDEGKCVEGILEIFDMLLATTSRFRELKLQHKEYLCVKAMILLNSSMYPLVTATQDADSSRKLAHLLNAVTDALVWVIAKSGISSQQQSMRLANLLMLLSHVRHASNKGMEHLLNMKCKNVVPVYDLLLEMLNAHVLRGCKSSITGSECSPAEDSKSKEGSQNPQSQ
Chain of Cytochrome P450 2C9 (P11712 whole entry): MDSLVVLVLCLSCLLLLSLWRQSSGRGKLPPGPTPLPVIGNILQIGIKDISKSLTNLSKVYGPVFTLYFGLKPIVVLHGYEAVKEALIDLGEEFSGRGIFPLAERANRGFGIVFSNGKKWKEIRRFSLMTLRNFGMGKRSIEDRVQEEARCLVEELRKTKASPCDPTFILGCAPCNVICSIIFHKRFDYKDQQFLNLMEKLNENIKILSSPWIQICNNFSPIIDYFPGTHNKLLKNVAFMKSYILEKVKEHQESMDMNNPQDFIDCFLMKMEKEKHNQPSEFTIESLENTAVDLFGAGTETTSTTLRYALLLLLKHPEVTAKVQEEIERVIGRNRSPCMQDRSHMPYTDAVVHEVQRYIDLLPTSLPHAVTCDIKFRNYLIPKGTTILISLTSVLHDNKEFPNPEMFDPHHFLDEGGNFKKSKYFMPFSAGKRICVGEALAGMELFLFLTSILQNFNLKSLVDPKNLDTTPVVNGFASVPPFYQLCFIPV
Chain of Bcl-2-like protein 1 (Q07817 whole entry): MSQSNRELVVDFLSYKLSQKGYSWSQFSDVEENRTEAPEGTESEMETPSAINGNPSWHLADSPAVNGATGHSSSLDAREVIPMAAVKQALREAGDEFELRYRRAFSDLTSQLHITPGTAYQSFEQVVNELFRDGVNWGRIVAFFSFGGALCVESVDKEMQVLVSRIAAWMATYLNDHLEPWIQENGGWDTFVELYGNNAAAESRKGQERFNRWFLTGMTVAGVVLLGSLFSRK
Chain of Cytochrome P450 2C19 (P33261 whole entry): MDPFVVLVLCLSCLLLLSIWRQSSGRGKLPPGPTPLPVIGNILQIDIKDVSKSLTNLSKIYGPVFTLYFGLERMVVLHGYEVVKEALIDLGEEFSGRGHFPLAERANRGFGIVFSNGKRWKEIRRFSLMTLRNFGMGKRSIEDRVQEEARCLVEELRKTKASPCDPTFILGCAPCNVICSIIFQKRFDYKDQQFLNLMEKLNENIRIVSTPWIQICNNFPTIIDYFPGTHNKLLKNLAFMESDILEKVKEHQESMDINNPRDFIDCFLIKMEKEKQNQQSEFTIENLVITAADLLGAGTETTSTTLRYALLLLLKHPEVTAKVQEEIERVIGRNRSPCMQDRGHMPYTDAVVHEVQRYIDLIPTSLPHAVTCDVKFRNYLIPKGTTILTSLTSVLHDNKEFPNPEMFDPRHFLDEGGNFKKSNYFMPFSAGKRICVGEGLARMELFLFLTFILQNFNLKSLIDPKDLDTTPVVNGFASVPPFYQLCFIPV

**Q.** Which IC50 [1] does the source give for `Cc1ccc(C2SCC(=O)N2Cc2cn3ccsc3n2)o1` (stereo not given) here?
**A.** Its IC50 is > 100 µM (active).

**Q.** For `O=C(CN(C(=O)c1ccc(Cl)cc1)N1C(=O)C2CCCCC2C1=O)c1ccc(Cl)cc1` (stereo not given), which EC50 [2] is on record?
**A.** Its EC50 is 18 µM (active).

**Q.** Which AC50 [3] does the source give for `COC(=O)[C@@]1(C)C=C[C@@H](Cc2ccccc2)N1C(=O)c1ccccc1` here?
**A.** Its AC50 is 20 µM (inconclusive).

**Q.** With `O=C(O)CSc1nnc(-c2ccc3c(c2)OCO3)o1` as the molecule, how does the IC50 [4] read?
**A.** Its IC50 is > 35 µM (not active).

**Q.** And the IC50 [5]?
**A.** Its IC50 is > 35 µM (not active).

**Q.** Which results are given for `C[C@@H]1CN([C@H](C)CO)S(=O)(=O)c2ccc(-c3ccncc3)cc2O[C@@H]1CN(C)Cc1ccc(Oc2ccccc2)cc1`?
**A.** AC50 [6]: 1.16 µM (active); AC50 [7]: 0.539 µM (active); AC50 [8]: 0.589 µM (active); AC50 [9]: 22.4 µM (active); AC50 [10]: 0.616 µM (active); AC50 [11]: > 100 µM (inactive)

**Q.** For `O=C(COC(=O)c1ccc(-c2ccccc2)cc1)Nc1ccccc1-c1ccccc1`, which IC50 [4] is on record?
**A.** The IC50 was 5.72 µM (active).

**Q.** And the IC50 [5]?
**A.** Its IC50 is 6.97 µM (active).

**Q.** For `C=C(C)COc1ccc2c(C)c(C)c(=O)oc2c1OCC(=C)C`, which CC50 [12] is on record?
**A.** Its CC50 is > 40 µM (active).

**Q.** For `COc1ccc(NC(=O)c2ccco2)cc1N`, which EC50 [13] is on record?
**A.** Its EC50 is > 195 µM (not active).

**Q.** What about the IC50 [14] of the same molecule?
**A.** Its IC50 is 10.7 µM (active).

**Q.** And the IC50 [15]?
**A.** The IC50 was 36.1 µM (not active).

**Q.** Which IC50 [1] does the source give for `COc1ccc(/C=C(/NC(C)=O)C(=O)O)cc1` here?
**A.** The IC50 was > 100 µM (active).

**Q.** And the AC50 [16]?
**A.** Its AC50 is 11.2 µM (inconclusive).

**Q.** And the AC50 [17]?
**A.** Its AC50 is 10 µM (inconclusive).

**Q.** Which AC50 [3] does the source give for `C(#CC1C=CC2OC(c3ccccc3)OCC2O1)c1ccccc1` (stereo not given) here?
**A.** The AC50 was 2.51 µM (inconclusive).

**Q.** For `C[C@H](NS(=O)(=O)OCC(Cl)(Cl)Cl)C1CC1c1ccccc1` (stereo not given in full), which IC50 [18] is on record?
**A.** The IC50 was > 109 µM (not active).

**Q.** And the IC50 [19]?
**A.** Its IC50 is 65.4 µM (not active).

**Q.** For `CCc1ccc2oc(-c3cc(N)cc(C)c3O)nc2c1`, which CC50 [12] is on record?
**A.** The CC50 was > 40 µM (active).

**Q.** For `COc1cccc(/C=C/C(=O)c2cccc([N+](=O)[O-])c2)c1OC`, which EC50 [2] is on record?
**A.** The EC50 was 9.39 µM (active).

From ChEMBL document CHEMBL1201862, “PubChem BioAssay data set” (2004)
